Results taken from ChEMBL document CHEMBL5260792, “Benzophenone: a ubiquitous scaffold in medicinal chemistry” (Medchemcomm, 2018).
Converted amounts (≈) assume the structure as drawn.

Columns and labels:
[1] = Anti-inflammatory activity in human PBMC cells assessed as inhibition of LPS-induced TNF-alpha production; format: functional, cell-based
[2] = Anti-inflammatory activity in human PBMC cells assessed as inhibition of LPS-induced […] production; format: functional, cell-based
[3] = tested on: Human immunodeficiency virus 1; assay: Antiviral activity against HIV-1 harboring K103N/L100I double mutant; format: functional, organism-based
[4] = tested on: Human immunodeficiency virus 1; assay: Antiviral activity against HIV-1 harboring K103N/V108I double mutant; format: functional, organism-based
[5] = tested on: Human immunodeficiency virus 1; assay: Antiviral activity against HIV-1 K103N mutant; format: functional, organism-based
[6] = tested on: Human immunodeficiency virus 1; assay: Antiviral activity against HIV-1 V108I mutant; format: functional, organism-based
[7] = tested on: Human immunodeficiency virus 1; assay: Antiviral activity against HIV-1 E138K mutant; format: functional, organism-based
[8] = tested on: Human immunodeficiency virus 1; assay: Antiviral activity against HIV-1 P225H mutant; format: functional, organism-based
[9] = tested on: Human immunodeficiency virus 1; assay: Antiviral activity against HIV-1 P236L mutant; format: functional, organism-based
[10] = tested on: Human immunodeficiency virus 1; assay: Antiviral activity against HIV-1 G190A mutant; format: functional, organism-based
[11] = tested on: Human immunodeficiency virus 1; assay: Antiviral activity against HIV-1 assessed as reduction in virus-induced cytopathic effect; format: functional, organism-based
[12] = tested on: Human immunodeficiency virus 1; assay: Antiviral activity against HIV-1 harboring K103N/Y181C double mutant; format: functional, organism-based
[13] = tested on: Human immunodeficiency virus 1; assay: Antiviral activity against HIV-1 L100I mutant; format: functional, organism-based
[14] = tested on: Human immunodeficiency virus 1; assay: Antiviral activity against HIV-1 Y181C mutant; format: functional, organism-based
[15] = tested on: Human immunodeficiency virus 1; assay: Antiviral activity against HIV-1 harboring K103N/P225H double mutant; format: functional, organism-based
[16] = tested on: Human immunodeficiency virus 1; assay: Antiviral activity against HIV-1 V106I mutant; format: functional, organism-based
[17] = tested on: Human immunodeficiency virus 1; assay: Antiviral activity against HIV-1 K101E mutant; format: functional, organism-based
[18] = tested on: Human immunodeficiency virus 1; assay: Antiviral activity against HIV-1 harboring V108I/Y181C double mutant; format: functional, organism-based
[19] = tested on: Human immunodeficiency virus 1; assay: Antiviral activity against HIV-1 Y188C mutant; format: functional, organism-based
[20] = biological target: T1, Glutathione S-transferase A1 (Homo sapiens, UniProt P08263); assay: Inhibition of recombinant human GSTA1-1
T1 sequence (P08263 whole entry): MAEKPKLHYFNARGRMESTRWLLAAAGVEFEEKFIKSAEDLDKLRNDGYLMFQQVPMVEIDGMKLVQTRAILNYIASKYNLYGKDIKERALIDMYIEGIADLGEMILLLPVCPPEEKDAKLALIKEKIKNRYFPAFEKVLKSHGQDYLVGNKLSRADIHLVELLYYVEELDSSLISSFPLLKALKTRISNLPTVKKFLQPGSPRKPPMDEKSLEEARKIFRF

[21] = biological target: Mitogen-activated protein kinase 14 (Homo sapiens, UniProt Q16539); assay: Inhibition of P38alphaMAPK (unknown origin)
Mitogen-activated protein kinase 14, sequence (Q16539 whole entry): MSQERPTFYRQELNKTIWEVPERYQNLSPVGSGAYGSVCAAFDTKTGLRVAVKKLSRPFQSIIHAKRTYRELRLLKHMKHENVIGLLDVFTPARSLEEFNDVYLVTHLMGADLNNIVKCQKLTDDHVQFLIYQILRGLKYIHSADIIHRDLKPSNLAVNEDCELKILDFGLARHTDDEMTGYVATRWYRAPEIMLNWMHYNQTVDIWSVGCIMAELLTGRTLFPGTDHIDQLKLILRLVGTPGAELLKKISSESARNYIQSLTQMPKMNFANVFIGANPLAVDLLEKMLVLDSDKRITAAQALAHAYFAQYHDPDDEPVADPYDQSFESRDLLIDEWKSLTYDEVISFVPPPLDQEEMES

MCF7 = assay: Antiproliferative activity against human MCF7 cells; format: functional, cell-based
Leishmania = assay: Antileishmanial activity against Leishmania assessed as reduction in parasite growth; format: functional, organism-based
[22] = tested on: Human immunodeficiency virus 1; assay: Antiviral activity against HIV-1; format: functional, organism-based
Plasmodium falciparum [23] = assay: Antiplasmodial activity against Plasmodium falciparum assessed as reduction in parasite growth; format: functional, organism-based
[24] = Inhibition of FTase (unknown origin) by Perkin elmer analysis; design: species or system Homo sapiens
Plasmodium falciparum [25] = assay: In vivo antiplasmodial activity against Plasmodium falciparum infected in mouse model; format: functional
CCRF-CEM = assay: Antiproliferative activity against human CEM cells assessed as reduction in cell viability by MTT assay; format: functional, cell-based
K562 = assay: Antiproliferative activity against human K562 cells assessed as reduction in cell viability by MTT assay; format: functional, cell-based
Rattus norvegicus [26] = assay: Anti-hyperlipidemic activity in rat assessed as reduction in total cholesterol level at 15 mg/kg, po measured after 18 hrs; format: functional; design: scale not given: the % may be the effect or the level left
Rattus norvegicus [27] = assay: Anti-hyperlipidemic activity in rat assessed as reduction in triglyceride level at 15 mg/kg, po measured after 18 hrs; format: functional; design: scale not given: the % may be the effect or the level left
[28] = Antiproliferative activity against mouse DLA cell expressing VEGF-A by MTT assay; format: functional, cell-based
Ehrlich = assay: Antiproliferative activity against mouse EAC cell expressing VEGF-A by MTT assay; format: functional, cell-based
[29] = Cytotoxicity against human HUVEC cells assessed as inhibition of cell growth; format: toxicity, cell-based

SMILES: Cc1cc(F)ccc1Nc1ccc(C(=O)c2ccccc2C)c(Cl)c1
- IC50 [1]: 4 nM
- IC50 ([2]; Homo sapiens, PBMC): 14 nM

SMILES: Nc1ccccc1Nc1ccc(C(=O)c2ccccc2)cc1
- IC50 [1]: 159 nM
- IC50 [2]: 226 nM

SMILES: Cc1ccccc1C(=O)c1ccc(Nc2ccccc2N)cc1Cl
- IC50 [1]: 4 nM
- IC50 ([2]; Homo sapiens, PBMC): 14 nM

SMILES: Cc1cc(S(N)(=O)=O)ccc1NC(=O)COc1ccc(Cl)cc1C(=O)c1cccc(C#N)c1
- IC50 [3]: < 10 nM
- IC50 [4]: < 10 nM
- IC50 [5]: < 10 nM
- IC50 [6]: < 10 nM
- IC50 [7]: < 10 nM
- IC50 [8]: < 10 nM
- IC50 [9]: < 10 nM
- IC50 [10]: < 10 nM
- IC50 [11]: < 2 nM
- IC50 [12]: < 10 nM
- IC50 [13]: < 10 nM
- IC50 [14]: < 10 nM
- IC50 [15]: < 10 nM
- IC50 [16]: < 10 nM
- IC50 [17]: < 10 nM
- IC50 [18]: < 10 nM
- IC50 [19]: < 10 nM

SMILES: Cc1cc(OCCCS(N)(=O)=O)ccc1NC(=O)COc1ccc(Cl)cc1C(=O)c1cc(F)cc(C(F)(F)F)c1
- IC50 [3]: < 10 nM
- IC50 [4]: < 10 nM
- IC50 [5]: < 10 nM
- IC50 [6]: < 10 nM
- IC50 [7]: < 10 nM
- IC50 [8]: < 10 nM
- IC50 [9]: < 10 nM
- IC50 [10]: < 10 nM
- IC50 [11]: < 2 nM
- IC50 [12]: < 10 nM
- IC50 [13]: < 10 nM
- IC50 [14]: < 10 nM
- IC50 [15]: < 10 nM
- IC50 [16]: < 10 nM
- IC50 [17]: < 10 nM
- IC50 [18]: < 10 nM
- IC50 [19]: < 10 nM

SMILES: Cc1cc(S(N)(=O)=O)ccc1NC(=O)COc1ccc(Cl)cc1C(=O)c1cc(F)cc(C(F)(F)F)c1
- IC50 [3]: < 10 nM
- IC50 [4]: < 10 nM
- IC50 [5]: < 10 nM
- IC50 [6]: < 10 nM
- IC50 [7]: < 10 nM
- IC50 [8]: < 10 nM
- IC50 [9]: < 10 nM
- IC50 [10]: < 10 nM
- IC50 [11]: < 2 nM
- IC50 [12]: < 10 nM
- IC50 [13]: < 10 nM
- IC50 [14]: < 10 nM
- IC50 [15]: < 10 nM
- IC50 [16]: < 10 nM
- IC50 [17]: < 10 nM
- IC50 [18]: < 10 nM
- IC50 [19]: < 10 nM

SMILES: O=C(c1ccccc1O)c1cc(Br)ccc1O
- IC50 [20]: 180 nM

SMILES: Cc1ccccc1C(=O)c1ccc(Nc2ccc(Br)cc2N)cc1Cl
- IC50 [1]: 4 nM
- IC50 ([2]; Homo sapiens, PBMC): 14 nM

SMILES: COc1ccc(C#CC(C)(C)N)cc1C(=O)c1ccc(Nc2ccc(F)cc2F)cc1
- IC50 [21]: 14 nM

SMILES: Cc1cccc(C(=O)c2ccc(OCC(=O)NNC(=O)C3CN(Cc4ccccc4)CCO3)c(C)c2)c1 (centres undefined)
- IC50 (MCF7): 9300 nM

SMILES: Cc1cc(C(=O)NC2CC2)ccc1-c1ccc(C(=O)c2cccc(CCC(O)CO)c2)cc1 (centres undefined)
- IC50 [21]: 27 nM

SMILES: O=C(COc1ccc(C(=O)c2ccccc2)cc1)c1ccc(Cl)c(Cl)c1
- IC50 (Leishmania): 1.19 µg/mL (≈ 3.09 µM)

SMILES: Cc1cc(C)cc(C(=O)c2cc(Cl)ccc2OC(C)C(=O)Nc2ccc(S(N)(=O)=O)cc2)c1 (centres undefined)
- EC50 [22]: 2.9 nM

SMILES: Cc1cc(C(=O)c2cccc(Br)c2)ccc1OCC(=O)NNC(=O)C1CN(Cc2ccccc2)CCO1 (centres undefined)
- IC50 (MCF7): 7100 nM

SMILES: CN(C)CCN(C)C(C(=O)Nc1ccc(NC(=O)/C=C/c2ccc(-c3ccc([N+](=O)[O-])cc3)o2)cc1C(=O)c1ccccc1)c1ccccc1 (centres undefined)
- IC50 (Plasmodium falciparum [23]): 32 nM
- IC50 [24]: 21 nM
- ED50 (Plasmodium falciparum [25]): 16 mg/kg

SMILES: Cc1cccc(C(=O)c2cc(Cl)ccc2OCC(=O)Nc2ccc([N+](=O)[O-])cc2C)c1
- EC50 [22]: 4.2 nM

SMILES: COc1ccc(C(=O)c2ccc(OCC(=O)N3CCC(CCCC4CCN(C(=O)c5ccc(Cl)cc5)CC4)CC3)cc2)c(OC)c1
- IC50 (CCRF-CEM): 1600 nM
- IC50 (K562): 1600 nM

SMILES: O=C(c1ccccc1)c1cccc(NC(=O)c2ccc(-c3cccc(O)c3)o2)c1
- Activity (Rattus norvegicus [26]): 88%
- Activity (Rattus norvegicus [27]): 84%

SMILES: COc1ccc(-c2csc(NC(=O)COc3ccc(C(=O)c4ccc(F)cc4C)cc3C)n2)cc1
- IC50 [28]: 5000 nM
- IC50 (Ehrlich): 5000 nM

SMILES: COc1ccc(C(=O)c2ccc(OCC(=O)N3CCC(CCCC4CCN(C(=S)c5ccc(Cl)cc5)CC4)CC3)cc2)c(OC)c1
- IC50 (CCRF-CEM): 1600 nM
- IC50 (K562): 1600 nM

SMILES: CC(C)(C)c1[nH]cnc1/C=c1\[nH]c(=O)/c(=C/c2ccccc2)[nH]c1=O [PLINABULIN]
- IC50 [29]: 10 nM
